# Assay results taken from paper PMC6332320, “Factors Influencing Oral Bioavailability of Thai Mango Seed Kernel Extract and Its Key Phenolic Principles” (Molecules, 2015).
# Tested on: Caco-2 monolayer
# Assay: Caco-2 transepithelial transport experiment
# Assay type: in vitro ADME, human
# Conditions: 20 µM
# Procedure: The transport experiment using Caco-2 monolayer was performed according to the criteria in our laboratory as previously reported with slight modification. Briefly, the cell monolayers were prepared by seeding 400,000 cells onto a polycarbonate insert, which has a surface area and pore size of 4.2 cm^2 and 3 μm, respectively (Nunc™, Thermo Fisher Scientific, Waltham, MA, USA). Cells were maintained in a humidified atmosphere at 37 °C (90% humidity and 5% CO2) and fed every other day. After 19 to 22 days post-seeding, the cell monolayers were used in the experiments. Before the experiment, the monolayers were quickly washed twice with pre-warmed HBSS at pH 7.4 (37 °C). The integrity of each monolayer was then verified by measuring the transepithelial electrical resistance (TEER) using a Millicell® ERS meter (Millipore, Bedford, MA, USA), and layers with TEER values less than 400 Ω/cm^2 relative to that of the blank insert were discarded. Then, the monolayers were incubated with the HBSS buffer at 37 °C for 1 h, and the incubation buffer was then aspirated. The test compounds were dissolved in HBSS at pH 6 to obtain final concentrations for the individual compounds (20 μM), mixture (20 μM) and MSKE (0.25 mg/mL), which were then loaded onto the A or B side (2.6 mL) as the donor side. A 2.6 mL aliquot of HBSS at pH 6 without the test compounds was loaded into the other side as the receiver side. After incubation at 37 °C, 0.6 mL of sample was collected from the receiver side at indicated times (60, 120, 180 and 240 min), and the same volume of receiver medium was replaced after each sampling. At the end of the experiment, the cells were washed twice with ice-cold HBSS at pH 6. The cells in each well were then collected and resuspended in 600 μL of HBSS at pH 6, and sonicated in an ice water bath at an output of 9 W for 30 min to obtain the cell lysates. The lysate was divided into the following aliquots: (1) 20 μL for quantitative protein assessment using a BCA™ protein assay kit and (2) 580 μL for quantitative test compounds. The samples collected from the transport study were stored at −20 °C until the UPLC or LC–MS/MS analysis. The experiments were performed in triplicate.
# The apparent permeability coefficient (Papp, cm/s) of each compound was calculated according to the following equation (Equation (1)): (1) Papp= dQ/dt×1/AC0 where dQ/dt is the compound permeation rate (nmol/s), A denotes the membrane surface area, and C0 is the initial concentration on the donor side (µM). The efflux ratio was calculated according to the following equation (Equation (2)): (2) Efflux ratio= Papp BA(mean)/Papp AB(mean) where Papp BA (mean) and Papp AB (mean) are the average apparent permeability coefficients of each compound from side B to side A, and from side A to side B, respectively.
structure (smiles),measurement,setting,value
"O=C(O)c1cc(O)c(O)c(O)c1 [GA, Gallic acid]",accumulation in the cells (cellular uptake),after individual bi-directional transport across Caco-2 monolayer,could not be detected
same,Papp B to A,"human, Caco-2, 240 min, pH 6",1.87 ± 0.47 ×10^−6 cm/s
